Laboratory results taken from ChEMBL document CHEMBL3352079, “Pyrimidine-based tricyclic molecules as potent and orally efficacious inhibitors of wee1 kinase” (ACS Med Chem Lett, 2015).
Activity calls are given as the source filed them. No cut-off for these calls is given here.

Legend:
Wee1-like protein kinase [1] = biological target: T1, Wee1-like protein kinase (Homo sapiens, UniProt P30291); assay: Inhibition of GST-tagged human Wee1
NCI-H1299 [2] = assay: Cytotoxicity against human NCI-H1299 cells assessed as cell viability after 72 hrs by CellTiterGlo assay; assay type: functional, cell-based; details: NCI-H1299, 72 h
Wee1-like protein kinase [3] = biological target: T1, Wee1-like protein kinase; assay: Inhibition of human Weel1 in human NCI-H1299 cells assessed as phosphorylation of Cdk1 after overnight incubation by ELISA PD assay; assay type: cell-based
[4] = Half life in CD-1 mouse at 3 mg/kg, iv; assay type: ADME, organism-based; parameters: dose 3 mg/kg, route intravenous; details: in vivo
[5] = Clearance in CD-1 mouse at 3 mg/kg, iv; assay type: ADME, organism-based; parameters: dose 3 mg/kg, route intravenous; details: in vivo
[6] = AUC in CD-1 mouse at 10 mg/kg, po; assay type: ADME, organism-based; parameters: dose 10 mg/kg, route oral; details: plasma
[7] = Oral bioavailability in CD-1 mouse at 10 mg/kg; assay type: ADME, organism-based; details: in vivo
NCI-H1299 [8] = assay: Antitumor activity against human NCI-H1299 cells xenografted in mouse assessed as depletion of pY15 bands at 100 mg/kg, po after 6 hrs; assay type: functional, organism-based; parameters: dose 100 mg/kg
NCI-H1299 [9] = assay: Antitumor activity against human NCI-H1299 cells xenografted in mouse assessed as depletion of pY15 bands at 100 mg/kg, po after 10 hrs; assay type: functional, organism-based; parameters: dose 100 mg/kg
NCI-H1299 [10] = assay: Antitumor activity against human NCI-H1299 cells xenografted in mouse assessed as tumor growth inhibition at 50 mg/kg, po qd from day 28 to 41 after tumor inoculation; assay type: functional; details: NCI-H1299, 672 h, read-out: TGI
NCI-H1299 [11] = assay: Antitumor activity against human NCI-H1299 cells xenografted in mouse assessed as tumor growth inhibition at 50 mg/kg, po qd from day 28 to 41 after tumor inoculation in presence of 10 mg/kg irinotecan; assay type: functional
NCI-H1299 [12] = assay: Antitumor activity against human NCI-H1299 cells xenografted in mouse assessed as tumor growth delay at 50 mg/kg, po qd from day 28 to 41 after tumor inoculation in presence of 10 mg/kg irinotecan; assay type: functional
[13] = Plasma concentration in human NCI-H1299 cells xenografted in mouse at 100 mg/kg, po qd after 6 hrs; assay type: ADME, organism-based; parameters: dose 100 mg/kg, route oral
[14] = Plasma concentration in human NCI-H1299 cells xenografted in mouse at 100 mg/kg, po qd after 10 hrs; assay type: ADME, organism-based; parameters: dose 100 mg/kg, route oral
[15] = Drug uptake in human NCI-H1299 cells xenografted in mouse assessed in tumor at 100 mg/kg, po qd after 6 hrs; assay type: ADME, organism-based, Neoplasm; parameters: dose 100 mg/kg, route oral; details: read-out: Drug uptake
[16] = Drug uptake in human NCI-H1299 cells xenografted in mouse assessed in tumor at 100 mg/kg, po qd after 10 hrs; assay type: ADME, organism-based, Neoplasm; parameters: dose 100 mg/kg, route oral; details: read-out: Drug uptake
Mus musculus = assay: In vivo inhibition of Wee1 in human NCI-H1299 cells xenografted in mouse assessed as pY15 CDK expression at 100 mg/kg, po qd after 6 to 10 hrs; assay type: functional, organism-based; parameters: dose 100 mg/kg
NCI-H1299 [17] = assay: Antitumor activity against human NCI-H1299 cells xenografted in mouse assessed as tumor growth inhibition at 10 mg/kg, po qd from day 28 to 41 after tumor inoculation; assay type: functional; details: NCI-H1299, 672 h, read-out: TGI

T1 sequence (P30291 whole entry): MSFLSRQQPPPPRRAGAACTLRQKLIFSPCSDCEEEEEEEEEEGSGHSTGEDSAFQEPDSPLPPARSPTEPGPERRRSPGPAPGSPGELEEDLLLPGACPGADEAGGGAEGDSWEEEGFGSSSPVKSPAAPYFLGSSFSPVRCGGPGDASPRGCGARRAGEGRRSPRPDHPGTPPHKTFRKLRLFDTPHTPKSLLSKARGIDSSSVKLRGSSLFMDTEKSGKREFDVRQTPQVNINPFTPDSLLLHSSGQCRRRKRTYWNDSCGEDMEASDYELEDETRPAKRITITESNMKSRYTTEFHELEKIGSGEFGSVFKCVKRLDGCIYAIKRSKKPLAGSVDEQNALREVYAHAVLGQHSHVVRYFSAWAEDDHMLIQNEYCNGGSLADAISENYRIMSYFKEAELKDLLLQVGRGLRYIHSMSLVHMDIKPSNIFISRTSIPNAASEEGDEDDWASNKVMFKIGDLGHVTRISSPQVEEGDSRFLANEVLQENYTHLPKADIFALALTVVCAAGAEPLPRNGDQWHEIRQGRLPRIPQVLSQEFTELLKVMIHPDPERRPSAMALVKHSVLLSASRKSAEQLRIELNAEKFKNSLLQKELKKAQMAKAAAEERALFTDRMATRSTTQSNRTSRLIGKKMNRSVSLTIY

SMILES	Ki (Wee1-like protein kinase [1])	EC50 (NCI-H1299 [2])	EC50 (Wee1-like protein kinase [3])	half-life [4]	clearance [5]	AUC [6]	bioavailability [7]	other results
O=c1c2cnc(NC3CCCCC3)nc2n2ccnc2n1-c1ccccc1Cl	> 3140 nM							
O=c1c2cnc(Nc3ccccc3)nc2n2ccnc2n1-c1ccccc1Cl	21 nM	5900 nM	6800 nM					
CN1CCc2ccc(Nc3ncc4c(=O)n(-c5ccccc5Cl)c5nccn5c4n3)cc2C1	1.6 nM	770 nM	220 nM	1.5 h	36.7 mL/min/kg	5.2 µM·h	52%	
CN1Cc2cc(Nc3ncc4c(=O)n(-c5ccccc5Cl)c5nccn5c4n3)ccc2C(C)(C)C1	< 1 nM	550 nM	98 nM	2.8 h	23.3 mL/min/kg	12.3 µM·h	80%	
CC(=O)N1Cc2cc(Nc3ncc4c(=O)n(-c5ccccc5Cl)c5nccn5c4n3)ccc2C2(CC2)C1	5.4 nM	2000 nM	620 nM					
CN1Cc2cc(Nc3ncc4c(=O)n(-c5c(Cl)cccc5Cl)c5nccn5c4n3)ccc2C(C)(C)C1	< 1 nM	230 nM	< 13 nM	3.9 h	16.2 mL/min/kg	9.8 µM·h	49%	
O=c1c2cnc(Nc3ccc4c(c3)CCCC4)nc2n2ccnc2n1-c1ccccc1Cl	26 nM	7300 nM	6000 nM					
CN1Cc2cc(Nc3ncc4c(=O)n(-c5c(F)cccc5Cl)c5nccn5c4n3)ccc2C(C)(C)C1	< 1 nM	310 nM	60 nM	2.8 h	9.17 mL/min/kg	24 µM·h	94%	inhibition (NCI-H1299 [8]): Active; inhibition (NCI-H1299 [9]): Active; inhibition in vivo at 50 mg/kg (NCI-H1299 [10]): 43%; TGI (NCI-H1299 [11]): 83%; Activity (NCI-H1299 [12]): 25%; concentration at 6 h [13]: 20 µM; concentration at 10 h [14]: 13.7 µM; concentration at 6 h [15]: 47.1 µM; concentration at 10 h [16]: 53.4 µM; inhibition (Mus musculus): Active
CN1CCC(c2ccc(Nc3ncc4c(=O)n(-c5ccccc5Cl)c5nccn5c4n3)cc2)CC1	8.3 nM	9600 nM	3100 nM					
O=c1c2cnc(Nc3ccc(N4CCCCC4)cc3)nc2n2ccnc2n1-c1ccccc1Cl	5.5 nM	9800 nM	3800 nM					
CN1Cc2cc(Nc3ncc4c(=O)n(-c5c(F)cccc5Cl)c5nccn5c4n3)ccc2C2(CC2)C1	< 1 nM	210 nM	29 nM	2.6 h	18.3 mL/min/kg	12 µM·h	68%	
CN1CCN(c2ccc(Nc3ncc4c(=O)n(-c5c(Cl)cccc5Cl)c5nccn5c4n3)cc2)CC1	< 1 nM	190 nM	87 nM	1.7 h	33.3 mL/min/kg	6.5 µM·h	55%	
CN1CCCc2ccc(Nc3ncc4c(=O)n(-c5ccccc5Cl)c5nccn5c4n3)cc21	8.6 nM	> 10000 nM	2300 nM					
CN1CCN(c2cccc(Nc3ncc4c(=O)n(-c5ccccc5Cl)c5nccn5c4n3)c2)CC1	6.2 nM	6500 nM	1500 nM					
O=c1c2cnc(Nc3ccc(C4CCCCC4)cc3)nc2n2ccnc2n1-c1ccccc1Cl	87 nM	> 10000 nM	10000 nM					
CN1CCN(c2ccc(Nc3ncc4c(=O)n(-c5ccccc5Cl)c5nccn5c4n3)cc2)CC1	2.3 nM	1000 nM	370 nM	1.9 h	30 mL/min/kg	8.4 µM·h	72%	
CN1Cc2cc(Nc3ncc4c(=O)n(-c5ccccc5Cl)c5nccn5c4n3)ccc2C2(CC2)C1	1.2 nM	690 nM	100 nM	2.3 h	25 mL/min/kg	9.8 µM·h	70%	
CN1Cc2cc(Nc3ncc4c(=O)n(-c5c(Cl)cccc5Cl)c5nccn5c4n3)ccc2C2(CC2)C1	< 1 nM	220 nM	27 nM					
CC(=O)N1CCN(c2ccc(Nc3ncc4c(=O)n(-c5ccccc5Cl)c5nccn5c4n3)cc2)CC1	6.6 nM	3300 nM	1100 nM					
CN1CCCc2cc(Nc3ncc4c(=O)n(-c5ccccc5Cl)c5nccn5c4n3)ccc21	7.4 nM	9300 nM	2700 nM					
CCc1c2c(nc3ccc(OC(=O)N4CCC(N5CCCCC5)CC4)cc13)-c1cc3c(c(=O)n1C2)COC(=O)[C@]3(O)CC [IRINOTECAN]								inhibition in vivo at 10 mg/kg (NCI-H1299 [17]): 67%; TGI (NCI-H1299 [11]): 83%
CN1CCN(c2ccccc2Nc2ncc3c(=O)n(-c4ccccc4Cl)c4nccn4c3n2)CC1	> 3140 nM							
CN1CCN(c2ccc(Nc3ncc4c(=O)n(-c5c(F)cccc5Cl)c5nccn5c4n3)cc2)CC1		450 nM						
